One data set addresses Cytochrome P450 2C19 (Homo sapiens, UniProt P33261). Briefly: Inhibition of CYP2C19 (unknown origin) by time dependent inhibition assay. The data set is classed as ADME.
Data set [1] can be described thus: Volume of distribution at steady state in Cynomolgus monkey at 5 mg/kg, po and 2 mg/kg, iv by LC-MS analysis. The data set is classed as ADME, organism-based, Macaca fascicularis. Particulars: in vivo.
Data set [2] in a line: Fraction unbound in Sprague-Dawley rat plasma. The data set is classed as ADME, cell-free.
Data set [3] is described as follows: Thermodynamic solubility in PBS at pH 7.4. The class given is physicochemical. Particulars: read-out: Therm_solubility.
Data set [4] is described as follows: AUC (infinity) in Sprague-Dawley rat at 5 mg/kg, po by LC-MS analysis. The data set is classed as ADME, organism-based. To be noted: in vivo.
Data set [5] can be described thus: Oral bioavailability in Sprague-Dawley rat at 5 mg/kg administered through oral gavage by LC-MS analysis. To be noted: in vivo. The data set is classed as ADME, organism-based.
Another data set concerns THP-1. Briefly: Antagonist activity against […] in PMA-primed human THP-1 cells assessed as inhibition of PrgI-induced IL-1beta release measured pretreated for 1 hr followed by induced with LFn-PrgI measured after 2 hr incubation by HTRF analysis. The class given is cell-based. To be noted: time 3.0 hrs. In general terms: In TR-FRET formats the signal depends on donor and acceptor labels being close together.

Another data set has as its target Cytochrome P450 2D6 (Homo sapiens, UniProt P10635). Briefly: Inhibition of CYP2D6 (unknown origin) by time dependent inhibition assay. The class given is ADME.
A short description of data set [6]: Oral bioavailability in Beagle dog at 2 mg/kg administrated through oral gavage by LC-MS analysis. The class given is ADME, organism-based, Canis lupus familiaris. To be noted: in vivo.
For a further data set, the target named is T1, Cytochrome P450 1A2 (Homo sapiens, UniProt P05177).
T1 sequence (P05177 whole entry): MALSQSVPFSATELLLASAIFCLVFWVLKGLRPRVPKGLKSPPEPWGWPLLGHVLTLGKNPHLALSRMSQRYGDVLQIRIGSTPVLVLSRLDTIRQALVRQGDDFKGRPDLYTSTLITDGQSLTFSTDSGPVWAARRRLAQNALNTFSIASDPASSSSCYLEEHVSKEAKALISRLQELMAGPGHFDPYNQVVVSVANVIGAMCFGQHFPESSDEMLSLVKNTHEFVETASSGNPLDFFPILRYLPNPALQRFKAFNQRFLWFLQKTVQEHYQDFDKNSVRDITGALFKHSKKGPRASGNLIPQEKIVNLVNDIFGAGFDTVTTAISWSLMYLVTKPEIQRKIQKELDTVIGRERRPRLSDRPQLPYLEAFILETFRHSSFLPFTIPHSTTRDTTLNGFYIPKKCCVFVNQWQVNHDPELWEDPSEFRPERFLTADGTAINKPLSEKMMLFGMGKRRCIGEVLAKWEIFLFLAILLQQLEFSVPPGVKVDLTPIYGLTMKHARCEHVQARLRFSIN
Briefly: Inhibition of CYP1A2 (unknown origin) by time dependent inhibition assay. The class given is ADME.

Data set [7] is described as follows: Cmax in Cynomolgus monkey at 5 mg/kg, po by LC-MS analysis. The data set is classed as ADME, organism-based, Macaca fascicularis. Particulars: in vivo.
The next data set concerns the target Cytochrome P450 2C9 (Homo sapiens, UniProt P11712). Briefly: Inhibition of CYP2C9 (unknown origin) by time dependent inhibition assay. The class given is ADME.
The nature of data set [8]: Metabolic stability in dog hepatocytes assessed as intrinsic clearance measured per 10^6 cells. The class given is ADME, cell-based, Canis lupus familiaris, Hepatocyte. To be noted: read-out: CLH.
Data set [9] is described as follows: Fraction unbound in Cynomolgus monkey plasma. The class given is ADME, cell-free, Macaca fascicularis.
Data set [10] in a line: AUC (infinity) in Beagle dog at 2 mg/kg, po by LC-MS analysis. The data set is classed as ADME, organism-based, Canis lupus familiaris. To be noted: in vivo.
In another data set the target is Bile salt export pump (Homo sapiens, UniProt O95342). Briefly: Inhibition of BSEP (unknown origin) assessed as reduction in uptake rate of taurocholic acid at 5 uM relative to control. The data set is classed as toxicity.
Chain of Bile salt export pump (O95342 whole entry): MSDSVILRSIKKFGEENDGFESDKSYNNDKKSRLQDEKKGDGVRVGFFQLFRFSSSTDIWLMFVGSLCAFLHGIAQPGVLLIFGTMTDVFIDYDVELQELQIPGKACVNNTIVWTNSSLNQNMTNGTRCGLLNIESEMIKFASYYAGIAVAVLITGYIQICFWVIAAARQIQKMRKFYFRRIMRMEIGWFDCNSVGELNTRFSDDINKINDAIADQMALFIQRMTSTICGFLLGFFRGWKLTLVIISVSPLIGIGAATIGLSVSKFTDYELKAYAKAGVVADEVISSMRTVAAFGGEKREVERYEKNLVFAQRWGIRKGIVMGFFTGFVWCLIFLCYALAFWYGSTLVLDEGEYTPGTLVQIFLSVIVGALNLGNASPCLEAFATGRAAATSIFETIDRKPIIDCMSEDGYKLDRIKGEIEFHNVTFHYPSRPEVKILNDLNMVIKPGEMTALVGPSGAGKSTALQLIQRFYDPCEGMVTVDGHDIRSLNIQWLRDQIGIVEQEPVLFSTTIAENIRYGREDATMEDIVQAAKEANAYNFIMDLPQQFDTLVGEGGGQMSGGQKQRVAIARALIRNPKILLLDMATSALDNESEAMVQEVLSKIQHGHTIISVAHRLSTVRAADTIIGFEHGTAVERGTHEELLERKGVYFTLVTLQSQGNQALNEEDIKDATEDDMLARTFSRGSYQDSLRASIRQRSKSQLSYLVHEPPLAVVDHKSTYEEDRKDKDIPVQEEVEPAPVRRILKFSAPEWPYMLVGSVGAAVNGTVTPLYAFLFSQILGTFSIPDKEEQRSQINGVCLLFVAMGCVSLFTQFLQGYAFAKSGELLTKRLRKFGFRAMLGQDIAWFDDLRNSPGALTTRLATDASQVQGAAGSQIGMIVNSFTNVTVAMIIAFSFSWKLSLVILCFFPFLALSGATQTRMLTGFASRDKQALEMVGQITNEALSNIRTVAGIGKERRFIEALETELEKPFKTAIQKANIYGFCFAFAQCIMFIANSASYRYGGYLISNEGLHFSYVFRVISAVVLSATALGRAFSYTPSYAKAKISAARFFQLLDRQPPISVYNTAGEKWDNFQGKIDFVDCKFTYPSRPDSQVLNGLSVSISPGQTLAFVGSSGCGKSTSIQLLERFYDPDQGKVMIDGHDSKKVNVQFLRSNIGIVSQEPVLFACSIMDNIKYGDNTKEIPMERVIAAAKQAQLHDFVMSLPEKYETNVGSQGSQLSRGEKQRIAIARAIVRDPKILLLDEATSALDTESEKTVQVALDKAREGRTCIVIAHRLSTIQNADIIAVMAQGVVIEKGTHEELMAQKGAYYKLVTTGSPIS

Results on one molecule are retold here after ChEMBL document CHEMBL6115017, “Discovery of DFV890, a Potent Sulfonimidamide-Containing NLRP3 Inflammasome Inhibitor” (J Med Chem, 2025).

As a reminder, the fraction unbound is the share of the substance not bound to proteins or other matrix. For orientation: AUC means concentration integrated over time. As a reminder, the bioavailability is the share of a dose that reaches the circulation, judged against a reference dose that is usually intravenous. For orientation: Cmax means the highest concentration seen after dosing. By AUC(0-inf) is commonly meant total exposure, with the tail of the curve extrapolated.

Molecules are shown by their SMILES. Converted amounts (≈) assume the structure as drawn. The source made the active and inactive calls. No cut-off for these calls is given here.

Chain of Cytochrome P450 2D6 (P10635 whole entry): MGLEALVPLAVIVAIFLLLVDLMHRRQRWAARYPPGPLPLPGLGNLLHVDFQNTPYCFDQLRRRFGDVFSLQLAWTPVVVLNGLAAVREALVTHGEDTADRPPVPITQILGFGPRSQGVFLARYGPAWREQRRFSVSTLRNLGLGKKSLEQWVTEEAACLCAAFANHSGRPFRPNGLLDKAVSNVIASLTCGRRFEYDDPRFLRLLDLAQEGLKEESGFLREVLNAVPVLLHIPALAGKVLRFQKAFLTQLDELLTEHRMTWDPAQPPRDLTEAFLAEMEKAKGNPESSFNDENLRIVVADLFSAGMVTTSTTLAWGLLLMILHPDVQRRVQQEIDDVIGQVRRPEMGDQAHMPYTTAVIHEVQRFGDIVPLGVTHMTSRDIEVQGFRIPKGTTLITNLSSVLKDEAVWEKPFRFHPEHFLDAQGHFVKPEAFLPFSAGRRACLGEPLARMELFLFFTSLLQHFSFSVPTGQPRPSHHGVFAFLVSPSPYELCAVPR
Chain of Cytochrome P450 2C9 (P11712 whole entry): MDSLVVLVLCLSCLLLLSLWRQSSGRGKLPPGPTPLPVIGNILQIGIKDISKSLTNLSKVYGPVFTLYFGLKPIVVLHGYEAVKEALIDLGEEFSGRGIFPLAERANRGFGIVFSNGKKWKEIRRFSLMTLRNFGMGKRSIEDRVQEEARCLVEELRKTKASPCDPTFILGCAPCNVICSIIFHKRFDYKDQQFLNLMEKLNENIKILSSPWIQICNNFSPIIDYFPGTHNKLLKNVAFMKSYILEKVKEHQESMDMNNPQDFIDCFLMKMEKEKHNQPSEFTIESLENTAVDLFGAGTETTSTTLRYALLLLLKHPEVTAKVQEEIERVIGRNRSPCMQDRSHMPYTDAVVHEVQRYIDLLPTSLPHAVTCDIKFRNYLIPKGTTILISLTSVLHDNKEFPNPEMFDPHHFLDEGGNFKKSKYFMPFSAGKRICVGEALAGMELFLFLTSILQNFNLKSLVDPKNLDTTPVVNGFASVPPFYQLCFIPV
Chain of Cytochrome P450 2C19 (P33261 whole entry): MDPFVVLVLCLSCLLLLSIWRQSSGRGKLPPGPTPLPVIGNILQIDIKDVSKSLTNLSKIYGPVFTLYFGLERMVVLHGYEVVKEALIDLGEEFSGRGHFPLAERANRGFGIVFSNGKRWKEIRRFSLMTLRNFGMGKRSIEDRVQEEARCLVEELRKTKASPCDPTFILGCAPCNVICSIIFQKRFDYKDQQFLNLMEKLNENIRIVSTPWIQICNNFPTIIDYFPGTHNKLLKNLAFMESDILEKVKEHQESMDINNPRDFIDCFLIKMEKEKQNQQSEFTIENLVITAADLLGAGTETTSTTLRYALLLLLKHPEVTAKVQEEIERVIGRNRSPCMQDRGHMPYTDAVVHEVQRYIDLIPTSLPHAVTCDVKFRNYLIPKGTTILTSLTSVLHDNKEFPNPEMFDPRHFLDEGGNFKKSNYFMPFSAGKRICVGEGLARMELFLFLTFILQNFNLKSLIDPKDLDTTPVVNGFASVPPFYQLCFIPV

In the case of `CC(C)(O)c1ncc([S@](N)(=O)=NC(=O)Nc2c3c(cc4c2CCC4)CCC3)s1`, the TDI entry on Cytochrome P450 2C19, at Cytochrome P450 2D6, at Cytochrome P450 1A2 and at Cytochrome P450 2C9 was “Not_active” in each case. In data set [1], the Vdss is 0.084 L/kg. Moreover, the fraction unbound was 0.012 in data set [2] and 0.005 in [9]. In addition, the solubility thermodynamic in data set [3] was 21 µg/mL (≈ 49.9 µM). This molecule had an AUC in data set [4] of 49.125 µg·h/mL. The bioavailability in data set [5] amounted to 82%; in data set [6], 97%. The outcome in the data set with THP-1 was inactive. This molecule also returned a Cmax in data set [7] of 21500 ng/mL. In data set [8], the hepatocyte CLint is under 1.9 µL/min/1e6 cells. The AUC(0-inf) in data set [10] came to 163 µg·h/mL. For the same molecule, on Bile salt export pump, the Activity entry is reported as “Not_active”.
